{"source": "patent US20050058707A1", "about": "“Uniform delivery of topiramate over prolonged period of time with enhanced dispersion formulation” (priority 2003, published 2005)", "key": {"[1]": {"experiment": "Aqueous solubility of topiramate", "format": "physicochemical", "conditions": "37 °C, thermodynamic from solid", "description": "Aqueous solubility is determined by adding the therapeutic agent to stirred or agitated water maintained in a constant temperature bath at a temperature of 37 degrees centigrade until no more agent dissolves. The resulting solution saturated with active agent is then filtered, typically under pressure through a 0.8-micron Millipore filter, and the concentration in solution is measured by any appropriate analytical method including gravimetric, ultraviolet spectrophometry, chromatography, and the like."}, "[2]": {"conditions": "Physicians' Desk Reference; cited from earlier work"}}, "note": "Where two headings read alike, the source gives them in different places.", "data": [{"smiles": "CC1(C)O[C@@H]2[C@@H](CO[C@@]3(COS(N)(=O)=O)OC(C)(C)O[C@@H]23)O1", "note": "[Topiramate, topiramate]", "values": [{"measurement": "solubility", "setting": "[1]; de-ionized water, read-out: Solubility of neat topiramate measured in de-ionized water", "result": 12, "unit": "mg/mL"}, {"measurement": "solubility", "setting": "[1]; water, read-out: solubility", "result": "9.8 to 13", "unit": "mg/mL"}, {"measurement": "solubility in water", "setting": "[2]", "result": "about 9.8 mg/ml"}]}]}
